Where two headings read alike, the source gives them in different places.
Molecular target: Human complement C1s enzyme (Homo sapiens (Human), UniProt P09871)
Test: Human C1s enzyme assay
Type: biochemical
Settings: read-out: IC50 (Stars)
Summary of the method: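 IC50 derived by nonlinear regression of rate versus concentration, with rate taken from A405 kinetics (30 s intervals, 30 min) after adding 100 μM each Z-L-Lys-SBzl and DTNB. C1s from human serum, 1.16 nM, exposed to compound for 5 min at RT beforehand; buffer 50 mM Tris, 1 M NaCl, pH 7.5.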

[1] = Human complement C1s enzyme 1.16 nM, substrate Z-L-Lys-SBzl 100 μM, assay of Example 3
[2] = Human C1s enzyme assay of Example 3

Chain of Human complement C1s enzyme (P09871 438-688 limits assumed): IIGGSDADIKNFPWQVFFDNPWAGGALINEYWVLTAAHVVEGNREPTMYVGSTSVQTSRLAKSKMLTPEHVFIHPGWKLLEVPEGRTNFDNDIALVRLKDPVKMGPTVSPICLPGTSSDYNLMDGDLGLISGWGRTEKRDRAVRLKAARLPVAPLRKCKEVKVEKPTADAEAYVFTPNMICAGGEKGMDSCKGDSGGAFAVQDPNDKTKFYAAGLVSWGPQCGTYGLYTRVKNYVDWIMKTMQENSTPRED
Chain of Human complement C1s enzyme (P09871 16-437 partner limits assumed): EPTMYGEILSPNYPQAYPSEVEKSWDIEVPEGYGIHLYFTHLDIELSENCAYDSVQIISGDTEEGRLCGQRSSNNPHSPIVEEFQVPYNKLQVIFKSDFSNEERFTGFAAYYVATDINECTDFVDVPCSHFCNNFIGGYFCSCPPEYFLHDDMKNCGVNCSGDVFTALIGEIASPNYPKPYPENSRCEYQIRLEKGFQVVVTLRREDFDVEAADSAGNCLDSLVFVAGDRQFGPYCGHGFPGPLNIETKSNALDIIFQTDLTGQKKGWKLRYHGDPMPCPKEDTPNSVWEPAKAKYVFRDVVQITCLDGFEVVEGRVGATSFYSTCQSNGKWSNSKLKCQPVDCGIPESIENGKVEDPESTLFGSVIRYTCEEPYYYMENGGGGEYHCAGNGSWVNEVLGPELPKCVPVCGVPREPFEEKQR

Structure (SMILES)	IC50 [1]	IC50 [2]	other results
C[C@@H](NC(=O)[C@@H]1C[C@](F)(CF)CN1C(=O)CNC(=O)c1ccc2c(c1)C(F)(F)c1ccccc1-2)c1cc(C(=N)N)cs1 [Compound 263, (2S,4R)—N—((R)-1-(4-carbamimidoylthiophen-2-yl)ethyl)-1-((9,9-difluoro-9H-fluorene-2-carbonyl)glycyl)-4-fluoro-4-(fluoromethyl)pyrrolidine-2-carboxamide]	< 100 nM		
Nc1cccc(Nc2csc(CNC(=O)[C@@H]3CC4(CN3C(=O)CNC(=O)c3ccc(Oc5ccc(F)cc5)cc3)OCCO4)c2)n1 [Compound 285, (S)-N-((4-((6-aminopyridin-2-yl)amino)thiophen-2-yl)methyl)-7-((4-(4-fluorophenoxy)benzoyl)glycyl)-1,4-dioxa-7-azaspiro[4.4]nonane-8-carboxamide]	> 1000 nM		
N=C(N)c1csc(CNC(=O)[C@@H]2CC3(CN2C(=O)CNC(=O)c2ccc(-c4ccc(C(=O)O)c(F)c4)cc2)OCCO3)c1 [Compound 213, (S)-4′-((2-(8-(((4-carbamimidoylthiophen-2-yl)methyl)carbamoyl)-1,4-dioxa-7-azaspiro[4.4]nonan-7-yl)-2-oxoethyl)carbamoyl)-3-fluoro-[1,1′-biphenyl]-4-carboxylic acid]	> 1000 nM		
C[C@@H](NC(=O)[C@@H]1C[C@@H](OC(F)F)CN1C(=O)CNC(=O)c1ccc(Oc2ccc(F)cc2)cc1)c1ccc(C(=N)N)s1 [Compound 57, (2S,4R)—N—((R)-1-(5-carbamimidoylthiophen-2-yl)ethyl)-4-(difluoromethoxy)-1-((4-(4-fluorophenoxy)benzoyl)glycyl)pyrrolidine-2-carboxamide]		< 100 nM	
C[C@@H](NC(=O)[C@@H]1CC2(CN1C(=O)CNC(=O)c1ccc3c(c1)-c1ccccc1-3)OCCO2)c1cc(C(=N)N)cs1 [Compound 95, (S)-7-((biphenylene-2-carbonyl)glycyl)-N—((R)-1-(4-carbamimidoylthiophen-2-yl)ethyl)-1,4-dioxa-7-azaspiro[4.4]nonane-8-carboxamide]		< 100 nM	
C[C@@H](NC(=O)[C@@H]1CC2(CN1C(=O)CNC(=O)c1ccc3c(c1)-c1ccccc1C3(F)F)OCCO2)c1cc(-c2cocn2)cs1 [Compound 129, (8S)-7-{2-[(9,9-difluorofluoren-3-yl)formamido]acetyl}-N-[(1R)-1-[4-(1,3-oxazol-4-yl)thiophen-2-yl]ethyl]-1,4-dioxa-7-azaspiro[4.4]nonane-8-carboxamide]		> 1000 nM	
N=C(N)c1csc([C@@H](CO)NC(=O)[C@@H]2C[C@](F)(CF)CN2C(=O)CNC(=O)c2ccc3c(c2)C(F)(F)c2ccccc2-3)c1 [Compound 405, (2S,4R)—N—((R)-1-(4-carbamimidoylthiophen-2-yl)-2-hydroxyethyl)-1-((9,9-difluoro-9H-fluorene-2-carbonyl)glycyl)-4-fluoro-4-(fluoromethyl)pyrrolidine-2-carboxamide]			IC50 (Human complement C1s enzyme 1.16 nM, substrate Z-L-Lys-SBzl, assay of Example 3): < 100 nM
Nc1ncc(-c2csc(CNC(=O)[C@@H]3CC4(CN3C(=O)CNC(=O)c3ccc(Oc5ccc(F)cc5)cc3)OCCO4)c2)s1 [Compound 187, (S)—N-((4-(2-aminothiazol-5-yl)thiophen-2-yl)methyl)-7-((4-(4-fluorophenoxy)benzoyl)glycyl)-1,4-dioxa-7-azaspiro[4.4]nonane-8-carboxamide]		> 1000 nM	
C[C@@H](NC(=O)[C@@H]1CC2(CN1C(=O)CNC(=O)c1ccc(-c3ccccc3)cc1)OCCO2)c1cc(C(=N)N)cs1 [Compound 90, (S)-7-(([1,1′-biphenyl]-4-carbonyl)glycyl)-N—((R)-1-(4-carbamimidoylthiophen-2-yl)ethyl)-1,4-dioxa-7-azaspiro[4.4]nonane-8-carboxamide]		< 100 nM	
Cc1ccc(-c2ccc3c(c2)CN(CC(=O)N2CC4(C[C@H]2C(=O)NCc2cc(C(=N)N)cs2)OCCO4)C3=O)c(C)c1 [Compound 240, (S)—N-((4-carbamimidoylthiophen-2-yl)methyl)-7-(2-(5-(2,4-dimethylphenyl)-1-oxoisoindolin-2-yl)acetyl)-1,4-dioxa-7-azaspiro[4.4]nonane-8-carboxamide]	< 100 nM		
C[C@@H](NC(=O)[C@@H]1CC2(CN1C(=O)CNC(=O)c1ccc3c(c1)-c1ccccc1C3F)OCCO2)c1cc(C(=N)N)cs1 (stereo partly drawn) [Compound 127, (8S)—N—((R)-1-(4-carbamimidoylthiophen-2-yl)ethyl)-7-((9-fluoro-9H-fluorene-3-carbonyl)glycyl)-1,4-dioxa-7-azaspiro[4.4]nonane-8-carboxamide]		< 100 nM	
N=C(N)c1csc(CNC(=O)[C@@H]2CC3(CN2C(=O)CNC(=O)c2ccc(-c4cnn(Cc5ccccc5)c4)cc2)OCCO3)c1 [Compound 198, (S)-7-((4-(1-benzyl-1H-pyrazol-4-yl)benzoyl)glycyl)-N-((4-carbamimidoylthiophen-2-yl)methyl)-1,4-dioxa-7-azaspiro[4.4]nonane-8-carboxamide]	< 100 nM		
COC[C@@]1(F)C[C@@H](C(=O)N[C@H](C)c2cc(C(=N)N)cs2)N(C(=O)CNC(=O)c2ccc(Oc3ccc(F)cc3)cc2)C1 [Compound 17, (2S,4R)—N—((R)-1-(4-carbamimidoylthiophen-2-yl)ethyl)-4-fluoro-1-((4-(4-fluorophenoxy)benzoyl)glycyl)-4-(methoxymethyl)pyrrolidine-2-carboxamide]		< 100 nM	

More lines, main results first:

IC50 [1]	IC50 [2]	Structure (SMILES)	other results
< 100 nM		COC[C@@]1(F)C[C@@H](C(=O)N[C@H](C)c2cc(C(=N)N)cs2)N(C(=O)CNC(=O)c2ccc3[nH]c4ccccc4c3c2)C1 [Compound 389, N-(2-((2S,4R)-2-(((R)-1-(4-carbamimidoylthiophen-2-yl)ethyl)carbamoyl)-4-fluoro-4-(methoxymethyl)pyrrolidin-1-yl)-2-oxoethyl)-9H-carbazole-3-carboxamide]	
< 100 nM		CS(=O)(=O)[C@@H]1C[C@@H](C(=O)N[C@H](CO)c2cc(C(=N)N)cs2)N(C(=O)CNC(=O)c2ncc(-c3ccccc3)cc2F)C1 [Compound 383, N-(2-((2S,4R)-2-(((R)-1-(4-carbamimidoylthiophen-2-yl)-2-hydroxyethyl)carbamoyl)-4-(methylsulfonyl)pyrrolidin-1-yl)-2-oxoethyl)-3-fluoro-5-phenylpicolinamide]	
< 100 nM		C[C@@H](NC(=O)[C@@H]1CC2(CN1C(=O)CN1Cc3cc(-c4ccccc4)ccc3C1=O)OCCO2)c1cc(C(=N)N)cs1 [Compound 365, (S)—N—((R)-1-(4-carbamimidoylthiophen-2-yl)ethyl)-7-(2-(1-oxo-5-phenylisoindolin-2-yl)acetyl)-1,4-dioxa-7-azaspiro[4.4]nonane-8-carboxamide]	
< 100 nM		C[C@@H](NC(=O)[C@@H]1C[C@](F)(CF)CN1C(=O)CNC(=O)c1ccc2c(c1)-c1ccccc1S2(=O)=O)c1cc(C(=N)N)cs1 [Compound 336, (2S,4R)—N—((R)-1-(4-carbamimidoylthiophen-2-yl)ethyl)-1-((5,5-dioxidodibenzo[b,d]thiophene-2-carbonyl)glycyl)-4-fluoro-4-(fluoromethyl) pyrrolidine-2-carboxamide]	
> 1000 nM		O=C(NCC(=O)N1CC2(C[C@H]1C(=O)NCc1cc(NCCO)cs1)OCCO2)c1ccc(Oc2ccc(F)cc2)cc1 [Compound 308, (S)-7-((4-(4-fluorophenoxy)benzoyl)glycyl)-N-((4-((2-hydroxyethyl)amino)thiophen-2-yl)methyl)-1,4-dioxa-7-azaspiro[4.4]nonane-8-carboxamide]	

Reference: US20250346585A1 (Alexion Pharmaceuticals, Inc., priority 2022, published 2025)
